Article PMC11277992, “New Zosteropenillines and Pallidopenillines from the Seagrass-Derived Fungus Penicillium yezoense KMM 4679” (Marine Drugs, 2024)
Read-outs that look alike come from different tables or passages of the source. Values belong to the molecule of their own block, whether it stands above or below them.

Columns and labels:
[1] = system: CoCl2-treated HEK-293 cells; assay: Cytoprotective activity, CoCl2-mimic hypoxia, cell viability (MTT); format: cell-based, human; details: CoCl2 at 500 µM for 24 h
Protocol: The HEK-293 cells were exposed to cobalt chloride (II) at a 500 µM for 1 h and then the compounds were added. After 24 h, the viability of the cells was measured via MTT assay as described earlier.

[2] = system: CoCl2-treated HEK-293 cells; assay: Lipid peroxidation level (MitoCLox) in CoCl2-treated cells; format: cell-based, human; details: toxic effect of CoCl2; MitoCLox fluorescence dye
Protocol: The fluorescence probe MitoCLox (Lumiprobe, Moscow, Russia) was used for the detection of the lipid peroxidation level in CoCl2-treated cells. It was added in the cells for 1 h at a concentration of 200 nM. After 1 h, the cells were washed with PBS and fluorescence was measured in ratiometric mode with λem = 520/590 nm using a PHERAStar FS plate reader (BMG Labtech, Offenburg, Germany). The data were processed with MARS Data Analysis v. 3.01R2 (BMG Labtech, Offenburg, Germany) and calculated as a 520/590 ratio.

Candida albicans KMM 455 = assay: Antimicrobial activity, microbial growth in broth (OD620); format: cell-based; details: Candida albicans, KMM455; compound at 100 µM; read-out: Inhibition of Microbial Growth, % of Control, C. albicans
Protocol: (§1) The yeast-like fungus Candida albicans KMM 455 and bacterial strains Staphylococcus aureus ATCC 21027 and Escherichia coli VKPM (B-7935) (Collection of Marine Microorganisms PIBOC FEB RAS) were cultured on solid-medium Mueller–Hinton broth with agar (16.0 g/L) in a Petri dish at 37 °C for 24 h. The assays were performed in 96-well microplates in an appropriate Mueller–Hinton broth. Each well contained 90 µL of a bacterial or yeast-like fungal suspension (10^6 CFU/mL). Then, 10 µL was added of a compound diluted at concentrations from 1.5 µM to 100.0 µM using twofold dilution (DMSO concentration < 1%). Culture plates were incubated overnight at 37 °C, and the OD620 was measured using a Multiskan FC spectrophotometer (Thermo Scientific Inc., Beverly, MA, USA). The antibiotic gentamicin and antifungal agent nitrofungin were used as positive controls at 1 mg/mL; 1% DMSO in PBS served as a negative control. Examination was performed twice and in triplicate. The results were calculated as a percentage of the control data using SigmaPlot 14.0 software.

[3] = system: Escherichia coli VKPM (B-7935); assay: as above; format: cell-based; details: compound at 100 µM, read-out: Inhibition of Microbial Growth, % of Control, E. coli
Protocol: as §1

[4] = system: Staphylococcus aureus ATCC 21027; assay: as above; format: cell-based; details: ATCC21027, compound at 100 µM, read-out: Inhibition of Microbial Growth, % of Control, S. aureus
Protocol: as §1

[5] = system: normal human kidney cells; assay: Cytotoxic activity (MTT assay); format: cell-based; details: 100 µM, 24 h
Protocol: (§2) The influence of compounds 1, 2 and 4–14 on the viability of normal human kidney […] cells, as well as human prostate PC-3, cervical HeLa and breast MCF-7 cancer cells, was measured using the MTT assay after 24 h of treatment.
(§3) The human prostate cancer cells PC-3 and CRL-1435 and the human embryonic kidney cells HEK-293 and CRL-1573TM were purchased from the American Type Culture Collection (ATCC; Manassas, VA, USA). PC-3 and HEK-293 cells were cultured in DMEM medium containing 10% fetal bovine serum (Biolot, St. Petersburg, Russia) and 1% penicillin/streptomycin (Biolot, St. Petersburg, Russia) at 37 °C in a humidified atmosphere with 5% (v/v) CO2. The cells were incubated in cultural flasks until sub-confluent (~80%).
(§4) PC-3 cells (5 × 10^3 cells/well) and HEK 293 cells (8 × 10^3 cells/well) were seeded in a 96-well plate and incubated overnight. Then, compounds were added at concentrations of 1–100 μM and incubated for another 24 h. Cell viability was then determined by the MTT (3-(4,5-dimethylthiazol-2-yl)-2,5-diphenyltetrazolium bromide) method according to the manufacturer’s instructions (Sigma-Aldrich, St. Louis, MO, USA). The absorbance of the converted formazan was measured using a Multiskan FC microplate photometer (Thermo Scientific, Waltham, MA, USA) at λ = 570 nm. The results are presented as percentages of the control data.

[6] = system: human prostate PC-3 cancer cells; assay: Cytotoxic activity (MTT assay); format: cell-based; details: for Cell Viability, % of Control, PC-3: 100 µM, 24 h, MTT; for IC50: Homo sapiens
Protocol: as §3
as §4, with “Then, compounds were added at concentrations of 1–100 μM and incubated for another 24 h.” left out

[7] = system: cervical HeLa cancer cells; assay: Cytotoxic activity (MTT assay); format: cell-based, human; details: for Cell Viability, % of Control, HeLa: 100 µM, 24 h, MTT; for IC50: Homo sapiens, HeLa, read-out: IC50, HeLa cells
[8] = system: breast MCF-7 cancer cells; assay: Cytotoxic activity (MTT assay); format: cell-based, human; details: for Cell Viability, % of Control, MCF-7: 100 µM, 24 h, MTT; for IC50: Homo sapiens
Protocol: as §2
as §4, with “Then, compounds were added at concentrations of 1–100 μM and incubated for another 24 h.” left out

[9] = system: LPS-stimulated RAW264.7 murine macrophages; parameters: method as in PMID 28218691; details: cited from earlier work
PC-3 cells [10] = assay: Colony formation (clonogenic) assay; format: cell-based; details: Homo sapiens, PC-3, 240 h; 10 days; read-out: half-maximal concentration of the inhibition of PC-3 colony formation
Protocol: The influence of compounds on colony formation by PC-3 cells was tested by the clonogenic assay. The concentration of PC-3 cells was 0.33 × 10^3/mL. The cells were incubated for 10 days, and then they were fixed with methanol (25 min), staining with 0.5% solution of crystal violet (25 min) and washing with PBS. The counting of grown colonies was carried out using a BIO-PRINT-Cx4 Edge-Fixed Pad-Container (Vilber, Collegien, France) using Bio-Vision Software user and service manual-v18.01 (Vilber, Collegien, France). The results are presented as colony inhibition in comparison with the control.

HeLa cells [11] = assay: Colony formation (clonogenic) assay; format: cell-based; details: Homo sapiens, 240 h, 10 days, read-out: half-maximal concentration of the inhibition of HeLa colony formation
MCF-7 cells [12] = assay: Colony formation (clonogenic) assay; format: cell-based; details: Homo sapiens, MCF7, 240 h; 10 days; read-out: half-maximal concentration of the inhibition of MCF-7 colony formation
PC-3 cells [13] = assay: Migration (scratch) assay; format: cell-based, human; details: 24 h
Protocol: Silicone 2-well inserts (Ibidi®, Gräfelfing, Germany) were used for formation of a free cell zone in the PC-3 cells’ monolayer. After removing the insert, the gap between the cells was 500 ± 50 μm. The cells were washed twice with PBS after removing the inserts and staining with (5,6)-carboxyfluorescein succinimidyl ester (CFDA SE) (Lumiprobe, Moscow, Russia) fluorescence dye. Then, cells were treated with compound or culture medium only (vehicle control) for 24 h. Cell migration into the wound area was observed under a fluorescence microscope (MIB-2-FL; LOMO, St. Petersburg, Russia) with objective 10× magnification.

HeLa cells [14] = assay: Migration (scratch) assay; format: cell-based, human; details: 24 h
MCF-7 cells [15] = assay: Migration (scratch) assay; format: cell-based, human; details: 24 h
MCF-7 cells [16] = assay: Drug combination study with doxorubicin (MTT); format: cell-based, human; details: 24 h
HeLa cells [17] = assay: Cell viability after pretreatment with 4-OHT (estrogen receptor inhibitor); format: cell-based, human; details: 14 at 75 µM, 4-OHT at 10 µM
Protocol: (§5) To detect the possible target of 14, we used 4-hydroxytamoxifen (4-OHT) at a concentration of 10 µM as a known inhibitor of estrogen receptors (ERs), and the data are presented in Figure 14.
(§6) Figure 14 The influence of 14 (at a 75 µM) on cell viability in the presence of 4-OHT (at 10 µM). Data are presented as the mean ± SEM. * p-value ≤ 0.05 considered significant.

MCF-7 cells [18] = assay: as above; format: cell-based, human; details: 14 at 75 µM, 4-OHT at 10 µM
Protocol: as §5, §6

PC-3 cells [19] = assay: as above; format: cell-based, human; details: 14 at 75 µM, 4-OHT at 10 µM
Protocol: as §5, §6

Compound: [Cl-].[Cl-].[Co+2] [CoCl2, cobalt (II) chloride, reference compound]
decrease of the viability of HEK-293 cells [1]: 75%
lipid peroxide levels in HEK-293 cells [2]: significant increase

Compound: C[C@@]1(O)C=C[C@H]2C[C@@H](CO)CC[C@@H]2[C@H]1C(=O)CCO [Compound 12, zosteropenilline J]
inhibition of growth at 100 µM (Candida albicans KMM 455): 6.61 ± 1.12%
inhibition of growth at 100 µM [3]: 0%
inhibition of growth at 100 µM [4]: 20.3 ± 1.2%
Cell Viability, % of Control, HEK-298 [5]: 87.01 ± 2.71 % of Control
Cell Viability, % of Control, PC-3 [6]: 87.01 ± 2.71 % of Control
Cell Viability, % of Control, HeLa [7]: 66.70 ± 6.64 % of Control
Cell Viability, % of Control, MCF-7 [8]: 82.77 ± 1.36 % of Control
effect on NO levels [9]: downregulate

IC50 (PC-3 cells [10]): 2480 ± 110 nM
IC50 (HeLa cells [11]): 960 ± 20 nM
IC50 (MCF-7 cells [12]): 660 nM
Compound: CC(=O)OCCC(=O)[C@@H]1[C@H]2CC[C@H](C)[C@@H](O)[C@@H]2C=C[C@@]1(C)O [Compound 14, 1-acetylpallidopenilline A]
inhibition of growth at 100 µM (Candida albicans KMM 455): 0%
inhibition of growth at 100 µM [3]: 0%
inhibition of growth at 100 µM [4]: 31.6 ± 7.8%
Cell Viability, % of Control, HEK-298 [5]: 96.92 ± 4.83 % of Control
Cell Viability, % of Control, PC-3 [6]: 45.91 ± 0.67 % of Control
IC50 ([6]; PC-3, 24 h, read-out: IC50, PC-3 cell viability): 94.2 ± 1.13 µM
IC50 ([6]; PC-3, 48 h, read-out: IC50, PC-3 cells): 63.4 µM
IC50 ([6]; PC-3, 72 h, read-out: IC50, PC-3 cells): 48.5 µM
Cell Viability, % of Control, HeLa [7]: 53.44 ± 2.14 % of Control
IC50 ([7]; 48 h): 82.7 µM
IC50 ([7]; 72 h): 73.2 µM
Cell Viability, % of Control, MCF-7 [8]: 23.71 ± 1.05 % of Control
IC50 ([8]; MCF7, 24 h, read-out: half-maximal inhibition of the viability of MCF-7 cells): 72 ± 2.48 µM
IC50 ([8]; MCF7, 48 h, read-out: IC50, MCF-7 cells): 54.7 µM
IC50 ([8]; MCF7, 72 h, read-out: IC50, MCF-7 cells): 41 µM
migration of PC-3 cells (PC-3 cells [13]): did not affect
migration of HeLa cells (HeLa cells [14]): significantly inhibited
migration of MCF-7 cells (MCF-7 cells [15]): significantly inhibited
decrease of MCF-7 cell viability (MCF-7 cells [16]; combination of 14 with doxorubicin at 0.1 µM): 50%
toxicity to MCF-7 cells compared with doxorubicin alone (MCF-7 cells [16]; combination of 14 with doxorubicin at 1 µM): more toxic
cytotoxicity of 14 after pretreatment with 4-OHT versus 14 alone (HeLa cells [17]): No significant differences
cytotoxicity of 14 after pretreatment with 4-OHT versus 14 alone (MCF-7 cells [18]): significant decrease in the cytotoxicity
cytotoxicity of 14 after pretreatment with 4-OHT versus 14 alone (PC-3 cells [19]): No significant differences

Compound: C[C@]12C=C[C@H]3C[C@@H](CO)CC[C@@H]3[C@H]1C(=O)CCO2 [zosteropenilline B]
effect on NO levels [9]: downregulate

Compound: CC1=C[C@H](O)[C@H]2[C@H](O)[C@@H](C)CC[C@@H]2[C@H]1C(=O)CCO [zosteropenilline H]
effect on NO levels [9]: downregulate
